Our source for the IC50 values is patent US8314117B2, “CGRP receptor antagonists” (Bristol-Myers Squibb Company, priority 2009, dated 2012).

The structures appear in SMILES notation. Where only a bound is given, the exact number is not on record here.

This test deals with T1, Human CGRP Receptor (Homo sapiens, UniProt O60894+Q16602).
T1 construct: Crude membranes were prepared from SK-N-MC cells expressing CGRP receptors; endogenous in cells; host or cells: SK-N-MC cells (crude membranes)
The test can be described thus: Radioligand binding assay, [125I]-CGRP displacement from SK-N-MC cell membranes. The settings on record: SK-N-MC membranes (7 μg/well); [125I]-CGRP final 18 pM; room temperature 2 h; at least two separate experiments. How it is done:
Tissue Culture. SK-N-MC cells were grown at 37° C. in 5% CO2 as a monolayer in medium consisting of MEM with Earle's salts and L-glutamine (Invitrogen) supplemented with 10% fetal bovine serum (Invitrogen). Membrane Preparation. Crude membranes were prepared from SK-N-MC cells expressing CGRP receptors. The cells were rinsed twice with phosphate-buffered saline (155 mM NaCl, 3.3 mM Na2HPO4, 1.1 mM […]4, pH 7.4), and incubated for 5-10 min. at 4° C. in hypotonic lysis buffer consisting of 10 mM Tris (pH 7.4) and 5 mM EDTA. […] Homogenates were centrifuged at 32,000×g for 30 min. The pellets were resuspended in cold hypotonic lysis buffer with 0.1% mammalian protease inhibitor cocktail (Sigma) and assayed for protein concentration. The SK-N-MC homogenate was aliquoted and stored at -80° C. Radioligand Binding Assay. The compounds of invention were solubilized and carried through serial dilutions using 100% DMSO. […] [^125I]-CGRP (GE Healthcare or Perkin-Elmer) was diluted to […] in assay buffer and a volume of 50 μl was added to each well. SK-N-MC membranes were thawed, diluted in assay buffer with fresh 0.1% mammalian protease inhibitor cocktail (Sigma), and re-homogenized. SK-N-MC homogenate (7 μg/well) was added in a volume of 100 μl. The assay plates were then incubated at room temperature for 2 h. […] Protein bound radioactivity was determined using a gamma or scintillation counter. […] Final assay concentration of [^125I]-CGRP was 18 pM. […] All compounds of invention were evaluated in at least two separate experiments.

As a reminder, the IC50 is the midpoint of a concentration-inhibition curve. Read a low IC50 as greater potency.

T1 sequence (Q16602 23-461): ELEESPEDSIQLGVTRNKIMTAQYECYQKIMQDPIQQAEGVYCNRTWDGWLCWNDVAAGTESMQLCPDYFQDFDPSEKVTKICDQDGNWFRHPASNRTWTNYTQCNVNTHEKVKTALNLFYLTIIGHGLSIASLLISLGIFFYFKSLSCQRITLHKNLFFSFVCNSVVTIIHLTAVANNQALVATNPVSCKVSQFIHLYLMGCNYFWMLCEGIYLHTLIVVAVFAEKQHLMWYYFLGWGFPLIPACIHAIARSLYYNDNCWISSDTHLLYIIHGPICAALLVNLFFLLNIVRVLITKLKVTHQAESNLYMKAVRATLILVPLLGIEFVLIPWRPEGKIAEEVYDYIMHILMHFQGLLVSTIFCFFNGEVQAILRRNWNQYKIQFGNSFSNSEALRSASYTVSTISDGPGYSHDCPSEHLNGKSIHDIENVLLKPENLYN
T1 sequence (O60894 27-148): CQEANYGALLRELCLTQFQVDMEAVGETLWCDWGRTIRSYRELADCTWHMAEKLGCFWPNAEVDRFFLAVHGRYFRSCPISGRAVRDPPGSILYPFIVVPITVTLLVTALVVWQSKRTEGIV

For the molecule `CN[C@@H]1c2cccnc2[C@H](OC(=O)N2CCC(n3c(=O)[nH]c4ncccc43)CC2)CC[C@H]1c1cccc(F)c1F` [Example 13, (5S,6S,9R)-6-(2,3-difluorophenyl)-5-(methylamino)-6,7,8,9-tetrahydro-5H-cyclohepta[b]pyridin-9-yl 4-(2-oxo-2,3-dihydro-1H-imidazo[4,5-b]pyridin-1-yl)piperidine-1-carboxylate], the half-maximal inhibitory concentration (IC50) came out at 0.19 nM.

Turning to `O=C(O[C@@H]1CC[C@H](c2cccc(F)c2F)[C@H](O)c2cccnc21)N1CCC(n2c(=O)[nH]c3ncccc32)CC1` [Example 6, (5S,6R,9R)-6-(2,3-difluorophenyl)-5-hydroxy-6,7,8,9-tetrahydro-5H-cyclohepta[b]pyridin-9-yl 4-(2-oxo-2,3-dihydro-1H-imidazo[4,5-b]pyridin-1-yl)piperidine-1-carboxylate], the half-inhibitory concentration (IC50) stood at 8.6 nM. For `[N-]=[N+]=N[C@@H]1c2cccnc2[C@H](OC(=O)N2CCC(n3c(=O)[nH]c4ncccc43)CC2)CC[C@H]1c1cccc(F)c1F` [Example 7, (5S,6S,9R)-5-azido-6-(2,3-difluorophenyl)-6,7,8,9-tetrahydro-5H-cyclohepta[b]pyridin-9-yl 4-(2-oxo-2,3-dihydro-1H-imidazo[4,5-b]pyridin-1-yl)piperidine-1-carboxylate] the value was 0.13 nM; for `N[C@@H]1c2cccnc2[C@H](NC(=O)N2CCC(n3c(=O)[nH]c4ncccc43)CC2)CC[C@H]1c1cccc(F)c1F` [Example 18], 0.8 nM; for `O=C(O[C@H]1c2ncccc2C[C@H](c2cccc(F)c2F)C[C@H]1O)N1CCC(n2c(=O)[nH]c3ncccc32)CC1` [Example 12, (6S,8R,9S)-6-(2,3-difluorophenyl)-8-hydroxy-6,7,8,9-tetrahydro-5H-cyclohepta[b]pyridin-9-yl 4-(2-oxo-2,3-dihydro-1H-imidazo[4,5-b]pyridin-1-yl)piperidine-1-carboxylate], 12 nM. As for `O=C(O[C@@H]1CCC(c2cccc(F)c2F)C(O)c2cccnc21)N1CCC(n2c(=O)[nH]c3ncccc32)CC1` (single isomer, unassigned) [Example 5], the figure is 1.3 nM; as for `O=C(O[C@@H]1CC[C@@](O)(c2cccc(F)c2F)[C@@H](O)c2cccnc21)N1CCC(n2c(=O)[nH]c3ncccc32)CC1` (single isomer, unassigned) [Example 3], 500 nM; as for `O=C(O[C@@H]1CC[C@@H](c2cccc(F)c2F)[C@H](O)c2cccnc21)N1CCC(n2c(=O)[nH]c3ncccc32)CC1` [Example 4, (5S,6S,9R)-6-(2,3-difluorophenyl)-5-hydroxy-6,7,8,9-tetrahydro-5H-cyclohepta[b]pyridin-9-yl 4-(2-oxo-2,3-dihydro-1H-imidazo[4,5-b]pyridin-1-yl)piperidine-1-carboxylate], 0.16 nM.

On to `N[C@@H]1c2cccnc2[C@@H](CC(=O)N2CCC(n3c(=O)[nH]c4ncccc43)CC2)CC[C@H]1c1cccc(F)c1F` [Example 21, 1-(1-(2-((5S,6S,9R)-5-amino-6-(2,3-difluorophenyl)-6,7,8,9-tetrahydro-5H-cyclohepta[b]pyridin-9-yl)acetyl)piperidin-4-yl)-1H-imidazo[4,5-b]pyridin-2(3H)-one], for which the concentration for half-maximal inhibition (IC50) is over 1000 nM. For `O=C1c2cccnc2[C@H](OC(=O)N2CCC(n3c(=O)[nH]c4ncccc43)CC2)CCC1c1cccc(F)c1F` (mixture of isomers) [Example 2, (9R)-6-(2,3-difluorophenyl)-5-oxo-6,7,8,9-tetrahydro-5H-cyclohepta[b]pyridin-9-yl 4-(2-oxo-2,3-dihydro-1H-imidazo[4,5-b]pyridin-1-yl)piperidine-1-carboxylate] the value was 28 nM; for `O=C(O[C@@H]1CC[C@@](O)(c2cccc(F)c2F)C(=O)c2cccnc21)N1CCC(n2c(=O)[nH]c3ncccc32)CC1` (single isomer, unassigned) [Example 1], 410 nM. As to `O=C(O[C@@H]1CC[C@@H](c2cccc(F)c2F)/C(=N\O)c2cccnc21)N1CCC(n2c(=O)[nH]c3ncccc32)CC1` [Example 16, (6S,9R,E)-6-(2,3-difluorophenyl)-5-(hydroxyimino)-6,7,8,9-tetrahydro-5H-cyclohepta[b]pyridin-9-yl 4-(2-oxo-2,3-dihydro-1H-imidazo[4,5-b]pyridin-1-yl)piperidine-1-carboxylate], the IC50 stood at 40 nM.

Consider `N[C@@H]1c2cccnc2[C@H](OC(=O)N2CCC(n3c(=O)[nH]c4ncccc43)CC2)CC[C@H]1c1cccc(F)c1F` [Example 8, (5S,6S,9R)-5-amino-6-(2,3-difluorophenyl)-6,7,8,9-tetrahydro-5H-cyclohepta[b]pyridin-9-yl 4-(2-oxo-2,3-dihydro-1H-imidazo[4,5-b]pyridin-1-yl)piperidine-1-carboxylate], for which the IC50 stood at 0.04 nM. Against the preceding molecule, the IC50 is about 1000-fold lower. For `CN(C)[C@@H]1c2cccnc2[C@H](OC(=O)N2CCC(n3c(=O)[nH]c4ncccc43)CC2)CC[C@H]1c1cccc(F)c1F` [Example 14, (5S,6S,9R)-6-(2,3-difluorophenyl)-5-(dimethylamino)-6,7,8,9-tetrahydro-5H-cyclohepta[b]pyridin-9-yl 4-(2-oxo-2,3-dihydro-1H-imidazo[4,5-b]pyridin-1-yl)piperidine-1-carboxylate] the value was 2 nM; for `O=C(O[C@@H]1CC[C@@H](c2cc(F)cc(F)c2)[C@H](O)c2cccnc21)N1CCC(n2c(=O)[nH]c3ncccc32)CC1` [Example 11, (5S,6S,9R)-6-(3,5-difluorophenyl)-5-hydroxy-6,7,8,9-tetrahydro-5H-cyclohepta[b]pyridin-9-yl 4-(2-oxo-2,3-dihydro-1H-imidazo[4,5-b]pyridin-1-yl)piperidine-1-carboxylate], 0.89 nM; for `N[C@@H]1c2cccnc2[C@H](OC(=O)N2CCC(n3c(=O)[nH]c4ncccc43)CC2)CC[C@H]1c1cc(F)cc(F)c1` [Example 10, (5S,6S,9R)-5-amino-6-(3,5-difluorophenyl)-6,7,8,9-tetrahydro-5H-cyclohepta[b]pyridin-9-yl 4-(2-oxo-2,3-dihydro-1H-imidazo[4,5-b]pyridin-1-yl)piperidine-1-carboxylate], 0.2 nM. With `N[C@@H]1c2cccnc2[C@H](OC(=O)Nc2ccc3c(c2)CC2(C3)C(=O)Nc3ncccc32)CC[C@H]1c1cccc(F)c1F` (stereo partly drawn) [Example 17, (5S,6S,9R)-5-amino-6-(2,3-difluorophenyl)-6,7,8,9-tetrahydro-5H-cyclohepta[b]pyridin-9-yl 2′-oxo-1,1′,2′,3-tetrahydrospiro[indene-2,3′-pyrrolo[2,3-b]pyridine]-5-ylcarbamate], the 50% inhibitory concentration (IC50) stood at 1.2 nM. This IC50 is about 6-fold higher than that of the molecule before.

`O=C(O[C@@H]1CC[C@@H](c2cccc(F)c2F)/C(=N/O)c2cccnc21)N1CCC(n2c(=O)[nH]c3ncccc32)CC1` [Example 15, (6S,9R,Z)-6-(2,3-difluorophenyl)-5-(hydroxyimino)-6,7,8,9-tetrahydro-5H-cyclohepta[b]pyridin-9-yl 4-(2-oxo-2,3-dihydro-1H-imidazo[4,5-b]pyridin-1-yl)piperidine-1-carboxylate] had an IC50 of 28 nM.
